Consider 19 compounds from ChEMBL document CHEMBL1149193, “Selective optimization of side activities: another way for drug discovery” (J Med Chem, 2004).

Series [1] addresses T1, Muscarinic acetylcholine receptor M1 (Homo sapiens, UniProt P11229).
T1 sequence (P11229 whole entry): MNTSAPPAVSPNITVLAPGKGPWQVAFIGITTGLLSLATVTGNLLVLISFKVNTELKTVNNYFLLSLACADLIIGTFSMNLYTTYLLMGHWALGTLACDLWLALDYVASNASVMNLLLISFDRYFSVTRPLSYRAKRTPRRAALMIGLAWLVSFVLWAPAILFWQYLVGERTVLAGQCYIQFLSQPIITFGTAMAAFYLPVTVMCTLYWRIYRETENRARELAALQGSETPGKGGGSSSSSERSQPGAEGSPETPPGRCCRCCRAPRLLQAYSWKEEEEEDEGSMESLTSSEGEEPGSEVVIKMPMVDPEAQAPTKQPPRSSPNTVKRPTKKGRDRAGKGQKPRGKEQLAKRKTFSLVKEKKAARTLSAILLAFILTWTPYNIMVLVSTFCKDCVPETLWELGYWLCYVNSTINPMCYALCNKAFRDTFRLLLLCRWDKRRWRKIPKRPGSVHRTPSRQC
Description: Binding affinity towards muscarinic M1 receptor

The target in series [2] is T2, Endothelin receptor type B (Homo sapiens, UniProt P24530).
T2 sequence (P24530 whole entry): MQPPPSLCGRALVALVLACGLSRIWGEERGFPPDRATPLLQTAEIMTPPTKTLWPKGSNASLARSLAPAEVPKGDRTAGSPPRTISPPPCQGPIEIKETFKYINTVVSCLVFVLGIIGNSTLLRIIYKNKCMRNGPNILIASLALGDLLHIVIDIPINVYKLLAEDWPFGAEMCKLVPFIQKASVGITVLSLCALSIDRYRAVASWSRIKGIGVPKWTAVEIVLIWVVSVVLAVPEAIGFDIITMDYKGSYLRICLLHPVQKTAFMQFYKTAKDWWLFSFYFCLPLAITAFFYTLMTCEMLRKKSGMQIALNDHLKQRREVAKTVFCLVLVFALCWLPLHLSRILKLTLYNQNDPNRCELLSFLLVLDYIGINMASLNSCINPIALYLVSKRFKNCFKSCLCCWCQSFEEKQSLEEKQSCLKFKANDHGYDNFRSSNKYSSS

Series [3] has as its target T3, Endothelin-1 receptor (Homo sapiens, UniProt P25101).
T3 sequence (P25101 whole entry): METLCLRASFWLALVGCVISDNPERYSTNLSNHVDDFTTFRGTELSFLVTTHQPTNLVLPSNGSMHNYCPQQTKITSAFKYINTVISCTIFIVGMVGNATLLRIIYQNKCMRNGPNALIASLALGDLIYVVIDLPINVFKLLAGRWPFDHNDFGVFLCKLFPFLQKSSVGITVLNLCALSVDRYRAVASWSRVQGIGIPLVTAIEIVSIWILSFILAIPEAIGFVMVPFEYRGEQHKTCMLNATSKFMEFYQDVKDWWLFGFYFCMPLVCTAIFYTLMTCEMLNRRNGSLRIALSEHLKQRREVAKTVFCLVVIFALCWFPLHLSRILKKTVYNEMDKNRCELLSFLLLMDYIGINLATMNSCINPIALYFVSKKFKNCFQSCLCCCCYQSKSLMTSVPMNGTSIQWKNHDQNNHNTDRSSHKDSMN
Description: Binding affinity against human Endothelin A receptor

For series [4], the target named is T4, Acetylcholinesterase (Electrophorus electricus, UniProt O42275). The class given is functional.
T4 sequence (O42275 whole entry): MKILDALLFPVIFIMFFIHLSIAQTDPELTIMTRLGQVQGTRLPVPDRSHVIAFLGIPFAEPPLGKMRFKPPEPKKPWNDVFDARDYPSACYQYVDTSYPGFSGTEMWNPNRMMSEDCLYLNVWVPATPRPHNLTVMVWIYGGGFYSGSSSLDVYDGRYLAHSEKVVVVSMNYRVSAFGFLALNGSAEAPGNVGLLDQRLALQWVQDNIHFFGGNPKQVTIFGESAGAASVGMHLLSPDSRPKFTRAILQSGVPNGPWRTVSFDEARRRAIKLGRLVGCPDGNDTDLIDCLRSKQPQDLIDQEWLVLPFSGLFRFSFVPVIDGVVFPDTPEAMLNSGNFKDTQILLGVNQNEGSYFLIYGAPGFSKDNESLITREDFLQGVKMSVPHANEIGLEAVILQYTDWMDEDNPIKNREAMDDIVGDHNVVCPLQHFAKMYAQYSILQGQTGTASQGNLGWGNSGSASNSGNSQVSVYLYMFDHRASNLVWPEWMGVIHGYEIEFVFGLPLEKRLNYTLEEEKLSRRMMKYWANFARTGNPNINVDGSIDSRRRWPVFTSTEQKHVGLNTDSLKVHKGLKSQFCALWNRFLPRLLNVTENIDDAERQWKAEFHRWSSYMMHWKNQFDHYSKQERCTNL
Description: (§1) Inhibitory concentration towards acetylcholinesterase in electric eel
Series [5] concerns the target T3, Endothelin-1 receptor. This is another data set of the same source.
Description: (§2) Inhibitory concentration against Endothelin A receptor
The nature of the next series: in vivo. The conditions noted are these: rat.
For another series, the species on record is Rattus norvegicus. The class given is functional.
A further series concerns the target D(4) dopamine receptor (Homo sapiens, UniProt P21917).
For another series, the species on record is Homo sapiens. Description: cells. The class given is functional, organism-based.
Series [6] deals with T5, Potassium voltage-gated channel subfamily KQT member 1 (Cavia porcellus, UniProt O70344).
T5 sequence (O70344 whole entry): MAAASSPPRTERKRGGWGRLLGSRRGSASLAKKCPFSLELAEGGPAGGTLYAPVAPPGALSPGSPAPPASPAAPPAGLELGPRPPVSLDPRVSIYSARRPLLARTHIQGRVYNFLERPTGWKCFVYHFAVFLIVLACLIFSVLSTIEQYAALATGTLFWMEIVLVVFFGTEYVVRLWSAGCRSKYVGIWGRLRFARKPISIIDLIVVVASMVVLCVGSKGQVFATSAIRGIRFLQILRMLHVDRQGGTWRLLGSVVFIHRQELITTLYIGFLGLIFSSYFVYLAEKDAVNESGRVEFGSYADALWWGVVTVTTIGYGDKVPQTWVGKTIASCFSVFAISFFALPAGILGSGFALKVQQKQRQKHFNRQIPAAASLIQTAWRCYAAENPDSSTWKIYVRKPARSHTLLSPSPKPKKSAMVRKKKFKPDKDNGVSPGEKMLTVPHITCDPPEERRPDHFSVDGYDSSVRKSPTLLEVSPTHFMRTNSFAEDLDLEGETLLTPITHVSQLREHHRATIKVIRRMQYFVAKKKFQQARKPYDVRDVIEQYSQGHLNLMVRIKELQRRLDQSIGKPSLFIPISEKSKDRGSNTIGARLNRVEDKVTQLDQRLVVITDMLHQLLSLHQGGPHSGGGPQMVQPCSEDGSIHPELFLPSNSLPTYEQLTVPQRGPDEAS
In kind it is cell-based, Oocyte.
Description: (§3) Inhibition of guinea pig Iks potassium channel expressed in Xenopus oocytes

Series [7] addresses T5, Potassium voltage-gated channel subfamily KQT member 1. The class given is functional, cell-based, Oocyte.
Description: as §3
Series [8] deals with T4, Acetylcholinesterase.
Description: as §1
For another series, the target named is D(3) dopamine receptor (Homo sapiens, UniProt P35462).
D(3) dopamine receptor, sequence (P35462 whole entry): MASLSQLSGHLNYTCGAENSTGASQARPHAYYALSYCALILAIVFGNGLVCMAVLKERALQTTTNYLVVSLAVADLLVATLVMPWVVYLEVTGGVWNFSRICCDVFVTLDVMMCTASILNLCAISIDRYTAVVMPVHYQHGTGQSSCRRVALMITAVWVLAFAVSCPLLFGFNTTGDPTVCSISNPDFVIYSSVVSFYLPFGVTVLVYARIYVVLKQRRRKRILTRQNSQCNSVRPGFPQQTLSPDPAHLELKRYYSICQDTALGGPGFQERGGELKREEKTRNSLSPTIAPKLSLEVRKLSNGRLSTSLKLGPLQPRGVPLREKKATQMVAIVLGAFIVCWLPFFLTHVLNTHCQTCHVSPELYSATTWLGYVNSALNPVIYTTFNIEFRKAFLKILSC
Series [9] concerns the target T6, Adrenergic receptor alpha-1 (Homo sapiens, UniProt P35348+P25100+P35368).
T6 sequence (P35348 whole entry): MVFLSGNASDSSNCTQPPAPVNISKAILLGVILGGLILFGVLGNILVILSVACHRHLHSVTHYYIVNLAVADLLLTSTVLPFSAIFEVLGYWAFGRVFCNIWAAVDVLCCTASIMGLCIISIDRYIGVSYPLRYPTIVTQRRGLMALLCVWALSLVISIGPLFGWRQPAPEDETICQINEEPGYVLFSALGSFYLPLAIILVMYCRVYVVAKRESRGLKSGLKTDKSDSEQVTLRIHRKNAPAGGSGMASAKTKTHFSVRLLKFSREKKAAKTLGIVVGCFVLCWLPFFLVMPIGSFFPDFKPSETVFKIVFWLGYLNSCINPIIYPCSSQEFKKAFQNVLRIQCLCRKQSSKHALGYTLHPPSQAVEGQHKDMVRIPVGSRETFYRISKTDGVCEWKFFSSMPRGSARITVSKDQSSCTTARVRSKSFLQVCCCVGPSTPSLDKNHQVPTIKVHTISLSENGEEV
T6 sequence (P25100 whole entry): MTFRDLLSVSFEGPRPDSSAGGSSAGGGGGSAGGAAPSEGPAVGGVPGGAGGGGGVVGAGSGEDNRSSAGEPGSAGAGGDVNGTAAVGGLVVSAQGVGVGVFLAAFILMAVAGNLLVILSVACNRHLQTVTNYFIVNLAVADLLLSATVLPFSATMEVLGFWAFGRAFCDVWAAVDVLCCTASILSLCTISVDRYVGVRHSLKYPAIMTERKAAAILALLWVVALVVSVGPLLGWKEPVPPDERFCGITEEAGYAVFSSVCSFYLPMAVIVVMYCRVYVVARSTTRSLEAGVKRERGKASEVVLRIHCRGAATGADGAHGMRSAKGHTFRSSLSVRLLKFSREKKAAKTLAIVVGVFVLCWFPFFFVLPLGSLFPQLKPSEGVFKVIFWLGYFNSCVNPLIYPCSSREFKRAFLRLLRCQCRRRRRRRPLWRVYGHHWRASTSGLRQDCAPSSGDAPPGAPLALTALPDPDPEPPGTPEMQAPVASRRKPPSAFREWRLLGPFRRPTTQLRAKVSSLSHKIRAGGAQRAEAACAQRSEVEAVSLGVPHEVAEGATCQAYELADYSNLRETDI
T6 sequence (P35368 whole entry): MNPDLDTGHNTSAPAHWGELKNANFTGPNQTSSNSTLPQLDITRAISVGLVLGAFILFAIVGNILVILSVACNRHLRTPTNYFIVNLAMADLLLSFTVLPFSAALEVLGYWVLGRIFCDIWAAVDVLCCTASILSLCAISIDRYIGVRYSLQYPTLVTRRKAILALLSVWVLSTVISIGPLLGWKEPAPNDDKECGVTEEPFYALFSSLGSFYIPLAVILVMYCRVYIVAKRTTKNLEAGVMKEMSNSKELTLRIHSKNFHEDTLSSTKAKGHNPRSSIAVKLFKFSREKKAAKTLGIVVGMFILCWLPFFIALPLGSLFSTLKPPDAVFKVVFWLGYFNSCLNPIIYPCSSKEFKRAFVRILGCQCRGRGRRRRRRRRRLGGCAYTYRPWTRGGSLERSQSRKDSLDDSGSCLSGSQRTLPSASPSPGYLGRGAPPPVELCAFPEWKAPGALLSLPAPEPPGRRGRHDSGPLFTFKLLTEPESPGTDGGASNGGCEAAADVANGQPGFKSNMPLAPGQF
Description: Binding affinity towards human alpha-1 adrenergic receptor

Series [10] deals with Muscarinic acetylcholine receptor. In kind it is protein assay.
Description: (§4) Binding affinity towards human muscarinic receptor
Series [11] deals with T3, Endothelin-1 receptor. This is another data set of the same source.
Description: as §2
Series [12] addresses T7, Muscarinic acetylcholine receptor M4 (Homo sapiens, UniProt P08173).
T7 sequence (P08173 whole entry): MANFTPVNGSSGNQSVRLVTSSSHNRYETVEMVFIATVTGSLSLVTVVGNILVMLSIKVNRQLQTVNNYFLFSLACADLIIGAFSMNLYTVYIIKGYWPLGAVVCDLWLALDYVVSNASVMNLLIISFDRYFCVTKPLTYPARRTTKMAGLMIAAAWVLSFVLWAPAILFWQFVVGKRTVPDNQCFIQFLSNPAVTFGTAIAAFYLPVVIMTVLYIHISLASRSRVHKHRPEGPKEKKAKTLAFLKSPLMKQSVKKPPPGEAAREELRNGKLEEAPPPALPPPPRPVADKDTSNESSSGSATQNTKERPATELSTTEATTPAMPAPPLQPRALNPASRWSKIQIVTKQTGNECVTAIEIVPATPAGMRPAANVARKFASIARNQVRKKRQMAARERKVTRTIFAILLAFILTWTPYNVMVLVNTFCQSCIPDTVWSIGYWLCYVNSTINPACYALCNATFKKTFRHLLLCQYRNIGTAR
Description: as §4

D(4) dopamine receptor, sequence (P21917 whole entry, looked up): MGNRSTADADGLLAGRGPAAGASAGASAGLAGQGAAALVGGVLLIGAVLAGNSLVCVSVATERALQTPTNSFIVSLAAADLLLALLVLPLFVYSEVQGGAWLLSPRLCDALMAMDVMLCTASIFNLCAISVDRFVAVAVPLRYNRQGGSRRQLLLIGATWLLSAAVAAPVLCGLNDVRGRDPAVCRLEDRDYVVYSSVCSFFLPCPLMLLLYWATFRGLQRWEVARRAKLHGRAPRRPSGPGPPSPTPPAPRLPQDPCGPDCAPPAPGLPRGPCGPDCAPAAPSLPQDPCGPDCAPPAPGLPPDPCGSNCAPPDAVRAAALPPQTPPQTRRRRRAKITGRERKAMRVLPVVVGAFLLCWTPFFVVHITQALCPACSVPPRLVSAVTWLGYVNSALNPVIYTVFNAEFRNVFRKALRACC
Description for D(3) dopamine receptor: Binding affinity against Dopamine receptor D3
Description for D(4) dopamine receptor: Binding affinity against human Dopamine receptor D4 versus hD2, hD3 receptor
Description for Homo sapiens: Antiviral activity against human respiratory syncytial virus (RSV)
Description for Rattus norvegicus: Dose required for oral activity in rats

In series [1], `Cc1cc(NCCN2CCOCC2)nnc1-c1ccccc1` showed an inhibitory constant (Ki) of 550 nM.
Regarding `COc1cc(OC)nc(CC(C(=O)O)C(C)(Oc2ccc(SC)cc2)c2ccccc2)n1` (configuration not stated), the Ki in series [2] is 4700 nM; at Endothelin-1 receptor [3] it was 160 nM.
For `c1ccc(-c2ccc(NCCCCN3CCc4ccccc4C3)nn2)cc1`, the IC50 against Acetylcholinesterase [4] turned out to be 1900 nM.
In turn, `Cc1cc(NCCN2C3CCCC2CC3)nnc1-c1ccccc1` came in with an inhibitory constant (Ki) in [1] of 50 nM.
In turn, `Cc1noc(NS(=O)(=O)c2ccccc2-c2ccc(-c3ncco3)cc2CNC(=O)CC(C)(C)C)c1C` had a Ki at Endothelin-1 receptor [5] of 0.01 nM. Further, the bioavailability in the series “in vivo” turned out to be 100%. This compound also displayed a Dose in the series filed under Rattus norvegicus of 3 µM/kg.
Regarding `Cc1cc(NCCN2C3CCCC2CC3)nnc1-c1ccccc1O`, affinity in series [1] was put at a Ki of 3 nM.
At Acetylcholinesterase [4], `c1ccc(-c2ccc(NCCN3CCCCC3)nn2)cc1` registered a half-maximal inhibitory concentration (IC50) of 13000 nM.
Consider `COc1cccc(CN2CC[C@H](NC(=O)c3cc(Cl)c(NC(=O)C4CC4)cc3OC)C2)c1`, for which the affinity on D(4) dopamine receptor corresponds to a Ki of 5.62 nM.
As for `COc1cc(OC)nc(CC(C(=O)O)C(C)(Oc2ccc(C(C)C)cc2)c2ccccc2)n1` (configuration not stated), the inhibition constant Ki in [2] was found to be 3000 nM; at Endothelin-1 receptor [3], 250 nM.
As for `NC(=O)CCN(CCC(N)=O)S(=O)(=O)c1cccc(Nc2nc(Nc3cccc(S(=O)(=O)N(CCC(N)=O)CCC(N)=O)c3)nc(Nc3ccc(-c4ccc(Nc5nc(Nc6cccc(S(=O)(=O)N(CCC(N)=O)CCC(N)=O)c6)nc(Nc6cccc(S(=O)(=O)N(CCC(N)=O)CCC(N)=O)c6)n5)cc4S(=O)(=O)O)c(S(=O)(=O)O)c3)n2)c1`, the half-maximal inhibitory concentration (IC50) in the series filed under Homo sapiens was found to be 50 nM.
The compound `NC(=O)CCN(CCC(N)=O)S(=O)(=O)c1cccc(Nc2nc(Nc3cccc(S(=O)(=O)N(CCC(N)=O)CCC(N)=O)c3)nc(Nc3ccc(/C=C/c4ccc(Nc5nc(Nc6cccc(S(=O)(=O)N(CCC(N)=O)CCC(N)=O)c6)nc(Nc6cccc(S(=O)(=O)N(CCC(N)=O)CCC(N)=O)c6)n5)cc4S(=O)(=O)O)c(S(=O)(=O)O)c3)n2)c1` yielded an IC50 in the series filed under Homo sapiens of 150 nM.
In turn, `CCS(=O)(=O)N(C)C1c2cc(C#N)ccc2OC(C)(C)[C@@H]1O` (single isomer, unassigned) gave an IC50 in series [6] of 5000 nM.
Take `CCS(=O)(=O)N(C)C1c2cc(C#N)ccc2OC(C)(C)[C@H]1O` (single isomer, unassigned): the concentration for half-maximal inhibition (IC50) was 6200 nM in [7] and 39000 nM in series [6].
As for `Cc1cc(-c2ccccc2)nnc1NCCN1CCOCC1` [MINAPRINE], the affinity in series [1] corresponds to a Ki of 17000 nM. Moreover, on Acetylcholinesterase [8], the 50% inhibitory concentration (IC50) was determined as 600000 nM.
Regarding `CCCCN1CCCC1CNC(=O)c1cc(C#N)c2ccccc2c1OC` (configuration not stated) [NAFADOTRIDE], on D(3) dopamine receptor, the Ki came out at 0.11 nM.
For `O=C1NCCN1CCN1CCC(c2cn(-c3ccc(F)cc3)c3ccc(Cl)cc23)CC1` [SERTINDOLE], the inhibition constant Ki in [9] was 1.8 nM; in series [10], over 5000 nM.
`Nc1ccc(S(=O)(=O)Nc2nccs2)cc1` [SULFATHIAZOLE] returned a half-maximal inhibitory concentration (IC50) on Endothelin-1 receptor [11] of 69000 nM.
With `O=C1Cc2cc(CCN3CCN(c4nsc5ccccc45)CC3)c(Cl)cc2N1` [ZIPRASIDONE], the inhibition constant Ki in [9] was 12 nM; in series [10], over 5000 nM.
Regarding `CN(C)CCOC1=Cc2ccccc2Sc2ccc(Cl)cc21` [ZOTEPINE], affinity in series [12] was put at a Ki of 550 nM. In other words, the sub-micromolar range.

As usually defined, the Ki is the equilibrium dissociation constant of an inhibitor or competing ligand from its target. Lower therefore signals tighter binding. As a reminder, the IC50 is the concentration that gives 50% inhibition. Low values mean inhibition by little substance, high ones a need for much substance. As usually defined, the bioavailability is the share of a dose that reaches the circulation, judged against a reference dose that is usually intravenous. A high value points to good availability.
